Measured values published in PubChem BioAssay AID2060488 (Molecular Pharmacology Branch, DTP, NCI, 2025).

Tested on: 966289-007-R4-J1-PDC complex spheroid viability
Experiment: Anticancer human tumor 966289-007-R4-J1-PDC patient-derived pancreatic adenocarcinoma cell line growth inhibition [GQUAD]
Settings: for IC50: curve of first compound; for viability, T/C: stronger effect = lower value
In short: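 Viability of tumor cells grown as complex spheroids with endothelial and stromal cells, exposed to drug combinations. Top concentration at or near clinical Cmax (else 10 microM), diluted in half-log increments.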
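Note: spheroids exposed to the agents for seven days before readout.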
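Throughout, for viability, T/C: percent viability relative to DMSO vehicle control wells taken as 100%.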

COc1cccc2c1C(=O)c1c(O)c3c(c(O)c1C2=O)CC(O)(C(=O)CO)CC3OC1CC(N)C(O)C(C)O1 (configuration not stated) + Cc1cnc(CNC(=O)c2c(=O)c3ccc(N4CCCN(C)CC4)nc3n3c2sc2ccccc23)cn1
IC50 (second compound 0.0316 µM): < 31.6 nM | IC50 (second compound 0.1 µM): < 31.6 nM | IC50 (second compound 0.316 µM): < 31.6 nM | IC50 (second compound 1 µM): < 31.6 nM | IC50 (second compound 3.16 µM): < 31.6 nM | IC50 (second compound 10 µM): < 31.6 nM | viability, T/C (second compound 0.0316 µM, first compound 0.0316 µM): 43.6% | viability, T/C (second compound 0.0316 µM, first compound 0.1 µM): 6.62% | viability, T/C (second compound 0.0316 µM, first compound 0.316 µM): 2.17% | viability, T/C (second compound 0.0316 µM, first compound 1 µM): 0.54% | viability, T/C (second compound 0.0316 µM, first compound 3.16 µM): 0.2% | viability, T/C (second compound 0.0316 µM, first compound 10 µM): 0.39% | viability, T/C (second compound 0.1 µM, first compound 0.0316 µM): 14.1% | viability, T/C (second compound 0.1 µM, first compound 0.1 µM): 7.19% | viability, T/C (second compound 0.1 µM, first compound 0.316 µM): 2.36% | viability, T/C (second compound 0.1 µM, first compound 1 µM): 0.41% | viability, T/C (second compound 0.1 µM, first compound 3.16 µM): 0.24% | viability, T/C (second compound 0.1 µM, first compound 10 µM): 0.54% | viability, T/C (second compound 0.316 µM, first compound 0.0316 µM): 8.14% | viability, T/C (second compound 0.316 µM, first compound 0.1 µM): 4.76% | viability, T/C (second compound 0.316 µM, first compound 0.316 µM): 1.77% | viability, T/C (second compound 0.316 µM, first compound 1 µM): 0.41% | viability, T/C (second compound 0.316 µM, first compound 3.16 µM): 0.17% | viability, T/C (second compound 0.316 µM, first compound 10 µM): 0.26% | viability, T/C (second compound 1 µM, first compound 0.0316 µM): 4.98% | viability, T/C (second compound 1 µM, first compound 0.1 µM): 3.35% | viability, T/C (second compound 1 µM, first compound 0.316 µM): 1.44% | viability, T/C (second compound 1 µM, first compound 1 µM): 0.09% | viability, T/C (second compound 1 µM, first compound 3.16 µM): 0.13% | viability, T/C (second compound 1 µM, first compound 10 µM): 0.32% | viability, T/C (second compound 3.16 µM, first compound 0.0316 µM): 3.68% | viability, T/C (second compound 3.16 µM, first compound 0.1 µM): 1.92% | viability, T/C (second compound 3.16 µM, first compound 0.316 µM): 0.11% | viability, T/C (second compound 3.16 µM, first compound 1 µM): 0.05% | viability, T/C (second compound 3.16 µM, first compound 3.16 µM): 0.1% | viability, T/C (second compound 3.16 µM, first compound 10 µM): 0.1% | viability, T/C (second compound 10 µM, first compound 0.0316 µM): 0.03% | viability, T/C (second compound 10 µM, first compound 0.1 µM): 0.08% | viability, T/C (second compound 10 µM, first compound 0.316 µM): 0.1% | viability, T/C (second compound 10 µM, first compound 1 µM): 0.07% | viability, T/C (second compound 10 µM, first compound 3.16 µM): 0.16% | viability, T/C (second compound 10 µM, first compound 10 µM): 0.24%
